The structures appear in SMILES notation.

Three compounds from BindingDB's records for doi:10.1021/jm960097t (Duquesne University, 1996) can be followed below.

The target in test [1] is Thymidylate synthase (Streptococcus faecium). Description: The inhibitory concentration of compound was evaluated on Streptococcus faecium Thymidylate synthase.
Test [2] has as its target Thymidylate synthase (Pneumocystis carinii). Description: The inhibitory concentration of compound was evaluated on Pneumocystis carini Thymidylate synthase.

`Cc1[nH]c2nc(N)[nH]c(=O)c2c1Sc1ccc2ccccc2c1` [2-Amino-6-methyl-5-(naphthalen-2-ylsulfanyl)-3,7-dihydro-pyrrolo[2,3-d]pyrimidin-4-one] registered an IC50 in test [1] of more than 25 µM.
Compound `Cc1[nH]c2nc(N)[nH]c(=O)c2c1Sc1ccncc1` [2-Amino-6-methyl-5-(pyridin-4-ylsulfanyl)-3,7-dihydro-pyrrolo[2,3-d]pyrimidin-4-one] displayed an IC50 in test [1] of 29 µM.
On to `Cc1[nH]c2nc(N)[nH]c(=O)c2c1Sc1ccccc1` [2-Amino-6-methyl-5-phenylsulfanyl-3,7-dihydro-pyrrolo[2,3-d]pyrimidin-4-one], for which the IC50 was 60 µM in test [2] and more than 30 µM in test [1].
